The source of these data is ChEMBL document CHEMBL4396925, “Malabaricone C as Natural Sphingomyelin Synthase Inhibitor against Diet-Induced Obesity and Its Lipid Metabolism in Mice” (ACS Med Chem Lett, 2019).

The target in data set [1] is T1, Phosphatidylcholine:ceramide cholinephosphotransferase 1 (Homo sapiens, UniProt Q86VZ5).
T1 sequence (Q86VZ5 whole entry): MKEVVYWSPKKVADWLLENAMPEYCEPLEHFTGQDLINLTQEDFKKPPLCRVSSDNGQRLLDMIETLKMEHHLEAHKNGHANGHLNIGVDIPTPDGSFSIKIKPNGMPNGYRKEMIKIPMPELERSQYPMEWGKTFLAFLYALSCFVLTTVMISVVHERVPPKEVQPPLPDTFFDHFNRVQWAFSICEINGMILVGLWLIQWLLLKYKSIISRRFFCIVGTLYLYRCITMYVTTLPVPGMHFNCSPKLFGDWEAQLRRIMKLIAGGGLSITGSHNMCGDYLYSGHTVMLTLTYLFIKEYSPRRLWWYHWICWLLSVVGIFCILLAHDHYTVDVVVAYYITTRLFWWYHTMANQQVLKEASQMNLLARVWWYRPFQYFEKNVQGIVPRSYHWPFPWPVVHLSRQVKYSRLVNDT
As to the kind of experiment: Inhibition of SMS1 (unknown origin) stably expressed in mouse ZS cells using C6-NBD-ceramide as substrate preincubated for 30 mins followed by substrate addition and measured after 3 hrs by HPLC analysis. Format: cell-based.

Data set [2] has as its target T2, Phosphatidylcholine:ceramide cholinephosphotransferase 2 (Homo sapiens, UniProt Q8NHU3).
T2 sequence (Q8NHU3 whole entry): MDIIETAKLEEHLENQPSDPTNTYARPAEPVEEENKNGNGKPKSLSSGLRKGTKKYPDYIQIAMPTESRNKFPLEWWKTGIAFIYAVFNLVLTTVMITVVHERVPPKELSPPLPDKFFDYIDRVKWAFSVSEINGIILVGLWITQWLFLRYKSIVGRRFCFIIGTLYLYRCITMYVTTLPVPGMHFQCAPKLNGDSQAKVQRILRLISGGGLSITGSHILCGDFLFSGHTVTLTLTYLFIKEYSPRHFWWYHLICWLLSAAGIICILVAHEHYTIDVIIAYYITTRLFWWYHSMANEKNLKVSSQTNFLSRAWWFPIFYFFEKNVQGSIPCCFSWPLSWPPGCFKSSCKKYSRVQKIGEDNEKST
As to the kind of experiment: Noncompetitive inhibition of SMS2 (unknown origin) stably expressed in mouse ZS cells using 5 to 50 uM C6-NBD-ceramide as substrate preincubated for 30 mins followed by substrate addition and measured after 3 hrs by HPLC analysis. Format: cell-based.

Data set [3] concerns the target T2, Phosphatidylcholine:ceramide cholinephosphotransferase 2. Kind of data set: Inhibition of SMS2 (unknown origin) stably expressed in mouse ZS cells using C6-NBD-ceramide as substrate preincubated for 30 mins followed by substrate addition and measured after 3 hrs by HPLC analysis. Format: cell-based.
For data set [4], the target named is T1, Phosphatidylcholine:ceramide cholinephosphotransferase 1. Kind of data set: Noncompetitive inhibition of SMS1 (unknown origin) stably expressed in mouse ZS cells using 5 to 50 uM C6-NBD-ceramide as substrate preincubated for 30 mins followed by substrate addition and measured after 3 hrs by HPLC analysis. It is filed as cell-based.
The target of data set [5] is T3, Phosphatidylcholine:ceramide cholinephosphotransferase 2 (Mus musculus) (UniProt Q9D4B1).
T3 sequence (whole entry): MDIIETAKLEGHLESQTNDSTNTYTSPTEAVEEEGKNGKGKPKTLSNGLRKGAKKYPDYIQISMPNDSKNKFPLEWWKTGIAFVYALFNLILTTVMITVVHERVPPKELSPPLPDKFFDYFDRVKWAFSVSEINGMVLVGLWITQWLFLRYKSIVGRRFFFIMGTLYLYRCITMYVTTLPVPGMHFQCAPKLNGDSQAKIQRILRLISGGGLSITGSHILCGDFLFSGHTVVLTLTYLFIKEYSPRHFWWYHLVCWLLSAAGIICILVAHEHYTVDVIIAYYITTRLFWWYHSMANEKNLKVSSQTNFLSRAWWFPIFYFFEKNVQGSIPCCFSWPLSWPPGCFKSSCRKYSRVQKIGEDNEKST
Kind of data set: Inhibition of SMS2 in HFD-induced obese C57BL/6J mouse liver tissue lysate using NBD-ceramide as substrate assessed as reduction in […] preincubated for 30 mins followed by substrate addition and measured after 3 hrs by HPLC analysis. It is filed as subcellular.

Data set [6] concerns the target T4, Phosphatidylcholine:ceramide cholinephosphotransferase 2 (Mus musculus, UniProt Q9D4B1).
T4 sequence (Q9D4B1 whole entry): T3 sequence (whole entry)
As to the kind of experiment: Inhibition of SMS2 in MEF cells using C6-NBD-ceramide as substrate preincubated for 1 hr followed by substrate addition and measured after 1 hr by HPLC analysis. It is filed as cell-based.

Data set [7] has as its target T5, Phosphatidylcholine:ceramide cholinephosphotransferase 1 (Mus musculus, UniProt Q8VCQ6).
T5 sequence (Q8VCQ6 whole entry): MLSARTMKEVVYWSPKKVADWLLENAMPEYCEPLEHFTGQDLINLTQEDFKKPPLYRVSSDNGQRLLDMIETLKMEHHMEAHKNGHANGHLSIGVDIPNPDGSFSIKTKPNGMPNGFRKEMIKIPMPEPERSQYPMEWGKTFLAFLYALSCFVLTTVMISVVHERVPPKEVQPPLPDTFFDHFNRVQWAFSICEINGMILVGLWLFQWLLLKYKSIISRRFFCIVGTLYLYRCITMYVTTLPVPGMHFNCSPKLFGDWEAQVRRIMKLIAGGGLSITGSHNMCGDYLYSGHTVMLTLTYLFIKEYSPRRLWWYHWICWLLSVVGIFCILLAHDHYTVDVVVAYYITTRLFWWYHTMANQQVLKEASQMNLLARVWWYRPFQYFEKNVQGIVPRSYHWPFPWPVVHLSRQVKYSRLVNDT
Kind of data set: Inhibition of SMS1 in MEF cells using C6-NBD-ceramide as substrate preincubated for 1 hr followed by substrate addition and measured after 1 hr by HPLC analysis. It is filed as cell-based.

Data set [8] has as its system HepG2. As to the kind of experiment: Lipid lowering activity in human HepG2 cells assessed as reduction in oleic acid-induced intracellular TG accumulation by ELISA. Format: functional, cell-based. For orientation: In an ELISA, binding on a coated surface is turned into a signal by an enzyme label.
Data set [9] can be described thus: Toxicity in HFD-induced obese C57BL/6J mouse model assessed as effect in daily food intake relative to control. As to conditions: in vivo.
For data set [10], the species on record is Mus musculus. As to the kind of experiment: Antiobesity activity in HFD-induced obese C57BL/6J mouse model assessed as reduction in TG level in plasma by ELISA. Format: functional, organism-based.
Data set [11] can be described thus: Toxicity in HFD-induced obese C57BL/6J mouse model assessed as effect on behavior measured over 2 months. As to conditions: in vivo, 1461 h.
Data set [12] is filed under the species Mus musculus. Kind of data set: Antiobesity activity in HFD-induced obese C57BL/6J mouse model assessed as reduction in TG level in liver by ELISA. Format: functional, organism-based.
Data set [13] is filed under the species Mus musculus. As to the kind of experiment: Antiobesity activity in HFD-induced obese C57BL/6J mouse model assessed as decrease in body weight measured after 20 days relative to control. Set-up: scale not given: the % may be the effect or the level left. Format: functional.
Data set [14] deals with HepG2. As to the kind of experiment: Lipid lowering activity in human HepG2 cells assessed as change in oleic acid-induced free fatty acid level by ELISA. It is filed as functional, cell-based.
Data set [15] concerns HepG2. Kind of data set: Lipid lowering activity in human HepG2 cells assessed as prevention in oleic acid-induced CD36/FAT activation. It is filed as functional, cell-based.
The nature of data set [16]: Toxicity in HFD-induced obese C57BL/6J mouse model assessed as effect on health measured over 2 months. Conditions: in vivo, 1461 h.
For data set [17], the species on record is Mus musculus. Kind of data set: Antiobesity activity in HFD-induced obese C57BL/6J mouse model assessed as decrease in liver weight relative to control. Format: functional, organism-based.
In data set [18] the target is T6, Phosphatidylcholine:ceramide cholinephosphotransferase 1 (Mus musculus) (UniProt Q8VCQ6).
T6 sequence (whole entry): T5 sequence (Q8VCQ6 whole entry)
Kind of data set: Inhibition of SMS1 in HFD-induced obese C57BL/6J mouse liver tissue lysate using […] as substrate assessed as reduction in SM synthesis preincubated for 30 mins followed by substrate addition and measured after 3 hrs by HPLC analysis. Format: subcellular.

Another data set concerns MEF. As to the kind of experiment: Cytotoxicity against MEF cells at 0.01 to 1 mM incubated for 3 hrs by CCK8 assay relative to control. Conditions: mouse, 1000 µM. Format: cell-based. For orientation: Tetrazolium assays rely on reduction of a dye to a coloured formazan, in cell work by metabolically active cells.
The species entered for data set [19] is Mus musculus. Kind of data set: Antiobesity activity in HFD-induced obese C57BL/6J mouse model assessed as improved lipid metabolism by oil red O-staining based histopathological analysis. Format: functional, organism-based.
The species entered for data set [20] is Mus musculus. As to the kind of experiment: Antiobesity activity in HFD-induced obese C57BL/6J mouse model assessed as resistance in steatosis development in liver by oil red O-staining based histopathological analysis. It is filed as functional, organism-based.
The subject of data set [21] is HepG2. Kind of data set: Lipid lowering activity in human HepG2 cells assessed as reduction in oleic acid-induced lipid droplet formation by nile red staining based fluorescence microscopic method. It is filed as functional, cell-based.
A short description of data set [22]: Toxicity in HFD-induced obese C57BL/6J mouse model assessed as induction of leaner phenotype measured over 2 months. Conditions: in vivo, 1461 h.
For data set [23], the system named is Mus musculus. Kind of data set: Antiobesity activity in HFD-induced obese C57BL/6J mouse model assessed as increase in glucose tolerance administrated orally for 8 weeks and measured post treatment by OGTT assay. Format: functional, organism-based.
For data set [24], the species on record is Mus musculus. As to the kind of experiment: Antiobesity activity in HFD-induced obese C57BL/6J mouse model assessed as reduction in free fatty acid level in plasma by ELISA. It is filed as functional, organism-based.
For data set [25], the species on record is Mus musculus. As to the kind of experiment: Antiobesity activity in HFD-induced obese C57BL/6J mouse model assessed as decrease fat content in liver. Format: functional, organism-based.

The structures appear in SMILES notation. Activity calls are given as the source filed them. The rule behind the calls is not given here.

For `O=C(CCCCCCCCc1ccccc1)c1c(O)cccc1O` [MALABARICONE A], the IC50 is 4 µM in [1], 1 to 3 µM in data set [2], 4 µM in data set [3] and 2 to 3 µM in data set [4].
With `O=C(CCCCCCCCc1ccc(O)cc1)c1c(O)cc(O)cc1O`, the IC50 in [1] was determined as 6 µM; in data set [3] it was 4.5 µM.
On to `O=C(CCCCCCCCc1ccc(O)cc1)c1c(O)cccc1O` [MALABARICONE B], for which the concentration for half-maximal inhibition (IC50) is 3.5 µM in [1], 1 to 3 µM in [2], 2.5 µM in [3] and 2 to 3 µM in data set [4].
Take `O=C(CCCCCCCCc1ccc(O)c(O)c1)c1c(O)cccc1O` [MALABARICONE C]: the inhibition result in data set [5] and in [18] was “Active” in each case. The IC50 in data set [6] was 11 µM; in [7], 13 µM; in [1], 3 µM; in [2] it was 1 to 3 µM; in data set [3], 1.5 µM; in [4] it was 2 to 3 µM. Also, the Activity result is “Dose-dependent effect” in the data set on HepG2 [8]; “Non-Toxic” in [9]; “Non-Toxic” in data set [11]; 42.7% in the data set listed under Mus musculus [13]; “Dose-dependent effect” in the data set with HepG2 [15]; “Non-Toxic” in data set [16]. For the same molecule, the values for the Activity (in the data set with MEF; in the data set with HepG2 [21]; in [22]) were 56 to 97%, “Dose-dependent effect” and “Toxic”, respectively. Moreover, the result in the data set filed under Mus musculus [10], in the data set listed under Mus musculus [12], in the data set listed under Mus musculus [17], in the data set filed under Mus musculus [19], in the data set listed under Mus musculus [20] and in the data set on Mus musculus [23] was Active. For the same molecule, the outcome in the data set filed under Mus musculus [24] and in the data set filed under Mus musculus [25] was Active. Besides, the outcome in the data set with HepG2 [14] was inactive.

In general, IC50 refers to the concentration needed to halve the response being measured.
